From US6375928B1, “Neutrophil stimulating peptides” (Peptech Limited, priority 1990, dated 2002)
Entries after “also recorded” stand apart in the source; their conditions may differ.

What was measured:
neutrophils [1] = assay: Superoxide formation, cytochrome reduction assay; format: cell-based
Source text: The effect of peptides 308 and 309 (SEQ ID NOs. 10 & 11) on superoxide formation was examined by the cytochrome reduction assay, according to the procedure of Ferrante, 1989 (Infection and Immunity), 57: 2115-2122). The results, expressed as n moles of O2/5×10^5 cells as set out in Table 6.

human neutrophils [2] = assay: Chemiluminescence assay: priming of neutrophils for F-met-leu-phe response (respiratory burst); format: cell-based; conditions: for lucigenin dependent chemiluminescence, peak of response: 20 min pretreatment before f-met-leu-phe; for chemiluminescence (repeat experiment, Table 3): peptide + fMLP
Experimental: Purified human neutrophils were pretreated with peptide for 20 minutes before the addition of f-met-leu-phe. The lucigenin dependent chemiluminescence response, which reflects superoxide production, was then measured. The results obtained are set out in Table 2 and are expressed as mV of lucigenin dependent chemiluminescence and represent the maximal cell activity attained.
Results are expressed as mV of lucigenin dependent chemiluminescence and represent peak of response i.e. the maximal cell activity attained.

neutrophils [3] = assay: Neutrophil degranulation: β-glucuronidase release (azurophilic granules); format: cell-based; conditions: for β-glucuronidase release, Exp. 1 / β-glucuronidase release, Exp. 2 / β-glucuronidase release, Exp. 3 / β-glucuronidase release, Exp. 4: in the presence of CytoB
neutrophils [4] = assay: Chemotactic properties, neutrophil migration under agarose; format: cell-based
Experimental: 5 μl of neutrophils (2×10^5 cells) were added to the inner well, with chemotactic agent or control medium added to the outer wells. Migration at various time intervals was then measured.

neutrophils [5] = assay: Neutrophil degranulation: Vitamin B12 binding protein release (specific granules); format: cell-based; conditions: for Vitamin B12 Binding Protein, Exp. 1 / Vitamin B12 Binding Protein, Exp. 2 / Vitamin B12 Binding Protein, Exp. 3 / Vitamin B12 Binding Protein, Exp. 4: in the presence of CytoB
human neutrophils [6] = assay: Chemiluminescence assay: priming of neutrophils for F-met-leu-phe response (respiratory burst); format: cell-based; conditions: peptide alone
neutrophils [7] = assay: Neutrophil random migration out of wells in agarose; format: cell-based
Source text: Migration of cells is an important property by which cells reach infection sites. Their accumulation at these sites is also dependent on the capacity of inflammatory mediators to inhibit their migration out of the sites.

P. falciparum = assay: Ability of peptide-stimulated neutrophils to inhibit in vitro growth of malaria parasites; format: cell-based; conditions: neutrophils incubated with peptide 37° C. 30 minutes; thawed normal, normal and immune serum (FIG. 5)
Experimental: The ability of neutrophils stimulated with peptides 418 and 419 (SEQ ID Nos. 17 & 18) to inhibit in vitro growth of malaria parasites was assessed.
Briefly, neutrophils were incubated with peptides 418 and 419 (SEQ ID NOs. 17 & 18) at 37° C. for 30 minutes and then washed with HBSS. The neutrophils were then added to a culture of red blood cells infected with P. falciparum. The cultures were then examined microscopically for evidence of parasite death.

monocytes = assay: Priming of monocytes for a respiratory burst (chemiluminescence); format: cell-based; conditions: 10^6 monocytes/tube/ml, 30 min pre-incubation 37° C.
Experimental: Peptide 419 (SEQ ID NO. 18) was assayed for its ability to prime monocytes for a respiratory burst. This assay was conducted essentially as described above for neutrophils except that the cells were cultured for 24 hours prior to assay.

Pseudomonas aeruginosa = assay: Pseudomonas experiment: chronic lung infection in mice; format: in vivo; conditions: female Swiss mice, chronic Pa lung infection; 0.5 mg peptide tail-vein each day for 3 days from day 12; n=4; p<0.05 vs carrier (5.25)
Experimental: Chronic lung infection by Pseudomonas aeruginosa (Pa) is common in cystic fibrosis. […] The present inventors reasoned that pre-sensitising neutrophils with TNF intravascularly, prior to their entry into the lung, may overcome this problem. […] The ability of i.v.-injected 419 (SEQ ID NO. 18) to protect against chronic lung injury induced by Pseudomonas was tested. Chronic lung infections were established in 120 14 week female Swiss mice by introducing the bacteria suspended in agar beads (<200 μm diameter) into the lung. Mice were anaesthetised and 30 μl of bead suspension introduced via a polyethylene cannula into the right bronchus through a small incision between the tracheal rings. After recover, animals (n=20) developed a chronic infection followed for at least 10-14 days. Control animals included: sham-operated (n=2); and those inoculated with sterile beads (n=6) or with beads containing fresh, heat-killed Pa (n=5).

ICAM = assay: Induction of ICAM on human umbilical vein endothelial cells (HUVEC); format: cell-based; conditions: peptide 1 mg, four hours at 37° C. (FIG. 7)
Experimental: Peptide 419 (SEQ ID NO. 18) was tested for its ability to induce ICAM using the following procedure.
The cells were then washed extensively with PBS containing Ca^++ and Mg^++ and fixed ([…] 0.025% guteraldehyde, overnight, 4° C.). The cells were again washed, and incubated with anti-ICAM antibody (84H10) for 1 hr at room temperature. The cells were washed and incubated for a further 1 hr at room temperature in the presence of rabbit anti-mouse Ig-HRP. Surface expression of Icam was then quantitated using the ABTS substrate by absorption at OD405 nm.

[8] = peptide 100 μg/10^6 cells (or HBSS) + fMLP
[9] = peptide 100 μg/10^6 cells, no fMLP
[10] = towards agent well, 1 × 10^−7 M fMLP, peptide, or 10^3 U/ml TNFα, 2×10^5 neutrophils
[11] = with fMLP, 419 100 μg/10^6 monocytes, 50 U TNF or no pre-treatment
[12] = without fMLP, 419 100 μg/10^6 monocytes or 50 U TNF

Substance: G L Y L I Y S Q V L F K G Q G (GLYLIYSQVLFKGQG) [Peptide 308]
- superoxide formation (neutrophils [1]; peptide + fMLP, 10 μg/5 × 10^5 cells): 5.00 n moles of O2/5×10^5 cells
- superoxide formation (neutrophils [1]; peptide + fMLP, 100 μg/5 × 10^5 cells): 6.729 n moles of O2/5×10^5 cells
- superoxide formation (neutrophils [1]; peptide alone, 10 μg/5 × 10^5 cells): 2.78 n moles of O2/5×10^5 cells
- superoxide formation (neutrophils [1]; peptide alone, 100 μg/5 × 10^5 cells): 4.892 n moles of O2/5×10^5 cells
- neutrophil stimulating activity / stimulation of neutrophil respiratory burst (in words) (human neutrophils [2]): neutrophil stimulating activity
- priming of neutrophils for the respiratory burst associated with f-met-leu-phe treatment (in words) (human neutrophils [2]): found to prime human neutrophils for the respiratory burst; also recorded: particularly potent primer of neutrophils
- lucigenin dependent chemiluminescence, peak of response (human neutrophils [2]; peptide 1 μg/10^6 cells): 0.91 mV
- lucigenin dependent chemiluminescence, peak of response (human neutrophils [2]; peptide 10 μg/10^6 cells): 4.80 mV
- lucigenin dependent chemiluminescence, peak of response (human neutrophils [2]; peptide 100 μg/10^6 cells): 49.52 mV
- chemiluminescence (repeat experiment, Table 3) (human neutrophils [2]; 10 μg/10^6 cells): 2.74 mV
- chemiluminescence (repeat experiment, Table 3) (human neutrophils [2]; 100 μg/10^6 cells): 28.56 mV
- release from azurophilic granules (β-glucuronidase), in words (neutrophils [3]; absence of fMLP): decreased the release
- β-glucuronidase release, Exp. 1 (neutrophils [3]; [8]): 17.57%
- β-glucuronidase release, Exp. 2 (neutrophils [3]; [8]): 28.86%
- β-glucuronidase release, Exp. 3 (neutrophils [3]; [8]): 17.86%
- β-glucuronidase release, Exp. 4 (neutrophils [3]; [8]): 18.20%
- β-glucuronidase release, Exp. 1 (neutrophils [3]; [9]): 0.8%
- β-glucuronidase release, Exp. 2 (neutrophils [3]; [9]): 0.65%
- β-glucuronidase release, Exp. 3 (neutrophils [3]; [9]): 2.76%
- β-glucuronidase release, Exp. 4 (neutrophils [3]; [9]): 0.72%
- release from azurophilic granules (β-glucuronidase), in words (neutrophils [3]; presence of fMLP): still apparent following stimulation with fMLP
- chemotactic properties (in words) (neutrophils [4]): strongly chemotactic
- Migration distance at 1.5 h, Agent (neutrophils [4]; [10]): 0.66 mm
- Migration distance at 2.5 h, Agent (neutrophils [4]; [10]): 1.41 mm
- release from specific granules (Vitamin B12 binding protein), in words (neutrophils [5]; absence of fMLP): decreased the release
- Vitamin B12 Binding Protein, Exp. 1 (neutrophils [5]; [8]): 35.81
- Vitamin B12 Binding Protein, Exp. 2 (neutrophils [5]; [8]): 27.59
- Vitamin B12 Binding Protein, Exp. 3 (neutrophils [5]; [8]): 26.55
- Vitamin B12 Binding Protein, Exp. 4 (neutrophils [5]; [8]): 21.51
- Vitamin B12 Binding Protein, Exp. 1 (neutrophils [5]; [9]): 2.00
- Vitamin B12 Binding Protein, Exp. 2 (neutrophils [5]; [9]): 2.08
- Vitamin B12 Binding Protein, Exp. 3 (neutrophils [5]; [9]): 5.70
- Vitamin B12 Binding Protein, Exp. 4 (neutrophils [5]; [9]): 2.25
- release from specific granules (Vitamin B12 binding protein), in words (neutrophils [5]; presence of fMLP): still apparent following stimulation with fMLP
- chemiluminescence (repeat experiment, Table 3) (human neutrophils [6]; 10 μg/10^6 cells): 1.00 mV
- chemiluminescence (repeat experiment, Table 3) (human neutrophils [6]; 100 μg/10^6 cells): 11.76 mV
- effect on neutrophil random migration (in words) (neutrophils [7]): potent inhibitors of neutrophil migration
- Inhibition of Migration (neutrophils [7]; 10 μg/10^6 cells): 0%
- Inhibition of Migration (neutrophils [7]; 100 μg/10^6 cells): 100%

Substance: P S T H V L I T H T I (PSTHVLITHTI) [Peptide 419]
- inhibition of in vitro growth of malaria parasites by stimulated neutrophils (in words) (P. falciparum): more effective than TNF
- neutrophil stimulating activity / stimulation of neutrophil respiratory burst (in words) (human neutrophils [2]): neutrophil stimulating activity
- Chemiluminescence mean + sem (human neutrophils [2]; 100 μg peptide, priming neutrophils for respiratory burst): 18.6 ± 0.5 mV
- Peak mV Chemiluminescence, Mean ± S.D. (monocytes; [11]): 240.0 ± 32.527 mV
- Peak mV Chemiluminescence, experiment 1 (monocytes; [11]): 263.0 mV
- Peak mV Chemiluminescence, experiment 2 (monocytes; [11]): 217.0 mV
- Peak mV Chemiluminescence, Mean ± S.D. (monocytes; [12]): 3.385 ± 1.365 mV
- Peak mV Chemiluminescence, experiment 1 (monocytes; [12]): 2.42 mV
- Peak mV Chemiluminescence, experiment 2 (monocytes; [12]): 4.35 mV
- percentage peripheral consolidation, mean (se) (Pseudomonas aeruginosa): 0.25 (se 0.25) %
- induction of ICAM surface expression (in words) (ICAM): does not induce the cell adhesion molecule ICAM
